Experiment [1] relates to Pseudomonas aeruginosa UI-18: Wild-type (PA-7). Nature of the experiment: MIC determination (CLSI), strain PA-7. The format is cell-based. Particulars: strain PA-7; unit assumed. A digest of the protocol: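 MIC determined by broth dilution per CLSI M7-A7 guidelines with M100-S18 interpretive standards. Test organism: wild-type Pseudomonas aeruginosa UI-18, designated PA-7.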

In experiment [2] the test system is Escherichia coli EC-1: VOGEL, mouse virulent. The experiment is described as follows: MIC determination (CLSI), strain EC-1. Particulars: strain EC-1; unit assumed. It counts as cell-based. A digest of the protocol:
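The mouse-virulent VOGEL isolate of E. coli, EC-1, served as test organism. Minimum inhibitory concentration was measured by CLSI dilution methodology (M7-A7; M100-S18 standards).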

Molecules are shown by their SMILES.

Regarding `CC(CCn1ccc(-c2cc(O)ccc2Cl)cc1=O)(C(=O)NO)S(C)(=O)=O` (centres unmarked) [Example 204, 4-[4-(2-chloro-5-hydroxyphenyl)-2-oxopyridin-1(2H)-yl]-N-hydroxy-2-methyl-2-(methylsulfonyl)butanamide], the PA-7 (MIC) in experiment [1] was more than 64 µg/mL. This molecule came in with an EC-1 (MIC) in experiment [2] of 64 µg/mL.

As for `CCOc1ncccc1-c1ccn(CCC(C)(C(=O)NO)S(C)(=O)=O)c(=O)c1` (centres unmarked) [Example 205, 4-(2-ethoxy-2′-oxo-3,4′-bipyridin-1′(2′H)-yl)-N-hydroxy-2-methyl-2-(methylsulfonyl)butanamide], the PA-7 (MIC) in experiment [1] is more than 64 µg/mL. Further, in experiment [2], the EC-1 (MIC) was more than 64 µg/mL.

As for `COc1cccc(-c2ccn(CCC(C)(C(=O)NO)S(C)(=O)=O)c(=O)c2)c1` (centres unmarked) [Example 206, N-hydroxy-4-[4-(3-methoxyphenyl)-2-oxopyridin-1(2H)-yl]-2-methyl-2-(methylsulfonyl)butanamide], in experiment [1], the PA-7 (MIC) was found to be 4 µg/mL. Moreover, in experiment [2], the EC-1 (MIC) came to 4 µg/mL.

For `CC(CCn1ccc(-c2ccc(C#N)c(F)c2)cc1=O)(C(=O)NO)S(C)(=O)=O` (centres unmarked) [Example 207, 4-[4-(4-cyano-3-fluorophenyl)-2-oxopyridin-1(2H)-yl]-N-hydroxy-2-methyl-2-(methylsulfonyl)butanamide], the PA-7 (MIC) in experiment [1] came to 16 µg/mL. This molecule also showed an EC-1 (MIC) in experiment [2] of 16 µg/mL.

Take `COc1cc(-c2ccn(CCC(C)(C(=O)NO)S(C)(=O)=O)c(=O)c2)ccc1F` (centres unmarked) [Example 208, 4-[4-(4-fluoro-3-methoxyphenyl)-2-oxopyridin-1(2H)-yl]-N-hydroxy-2-methyl-2-(methylsulfonyl)butanamide]: in experiment [1], the PA-7 (MIC) stood at 16 µg/mL. The EC-1 (MIC) in experiment [2] was 32 µg/mL.

On to `Cc1cc(-c2ccn(CCC(C)(C(=O)NO)S(C)(=O)=O)c(=O)c2)ccn1` (centres unmarked) [Example 209, N-hydroxy-2-methyl-4-(2′-methyl-2-oxo-4,4′-bipyridin-1(2H)-yl)-2-(methylsulfonyl)butanamide], for which the PA-7 (MIC) in experiment [1] was determined as 32 µg/mL. This molecule displayed an EC-1 (MIC) in experiment [2] of 64 µg/mL.

`CC(CCn1ccc(-c2cccc(O)c2)cc1=O)(C(=O)NO)S(C)(=O)=O` (centres unmarked) [Example 210, N-hydroxy-4-[4-(3-hydroxyphenyl)-2-oxopyridin-1(2H)-yl]-2-methyl-2-(methylsulfonyl)butanamide]: the PA-7 (MIC) in experiment [1] was more than 64 µg/mL. Besides, the EC-1 (MIC) in experiment [2] is more than 64 µg/mL.

`CC(C)(C)NC(=O)c1cc(-c2ccn(CCC(C)(C(=O)NO)S(C)(=O)=O)c(=O)c2)ccc1F` (centres unmarked) [Example 211, N-tert-butyl-2-fluoro-5-{1-[4-(hydroxyamino)-3-methyl-3-(methylsulfonyl)-4-oxobutyl]-2-oxo-1,2-dihydropyridin-4-yl}benzamide]: the PA-7 (MIC) in experiment [1] is more than 64 µg/mL. In addition, in experiment [2], the EC-1 (MIC) was 64 µg/mL.

In the case of `COc1cc(-c2ccn(CCC(C)(C(=O)NO)S(C)(=O)=O)c(=O)c2)cc(OC)c1OC` (centres unmarked) [Example 212, N-hydroxy-2-methyl-2-(methylsulfonyl)-4-[2-oxo-4-(3,4,5-trimethoxyphenyl)pyridin-1(2H)-yl]butanamide], the PA-7 (MIC) in experiment [1] is more than 64 µg/mL. Besides, in experiment [2], the EC-1 (MIC) was more than 64 µg/mL.

Regarding `CC(CCn1ccc(-c2ccccc2O)cc1=O)(C(=O)NO)S(C)(=O)=O` (centres unmarked) [Example 213, N-hydroxy-4-[4-(2-hydroxyphenyl)-2-oxopyridin-1(2H)-yl]-2-methyl-2-(methylsulfonyl)butanamide], the PA-7 (MIC) in experiment [1] was more than 64 µg/mL. The molecule further had an EC-1 (MIC) in experiment [2] of more than 64 µg/mL.

`CC(CCn1ccc(-c2ccc(F)c(Cl)c2)cc1=O)(C(=O)NO)S(C)(=O)=O` (centres unmarked) [Example 214]: the PA-7 (MIC) in experiment [1] turned out to be 2 µg/mL. The molecule further displayed an EC-1 (MIC) in experiment [2] of 1 µg/mL.

In experiment [1], `CC(CCn1ccc(-c2cccc3cnccc23)cc1=O)(C(=O)NO)S(C)(=O)=O` (centres unmarked) [Example 215, N-hydroxy-4-(4-isoquinolin-5-yl-2-oxopyridin-1(2H)-yl)-2-methyl-2-(methylsulfonyl)butanamide] came in with a PA-7 (MIC) of 64 µg/mL. For the same molecule, in experiment [2], the EC-1 (MIC) is more than 64 µg/mL.

Take `CC(CCn1ccc(-c2cc(Cl)cc(Cl)c2)cc1=O)(C(=O)NO)S(C)(=O)=O` (centres unmarked) [Example 216, 4-[4-(3,5-dichlorophenyl)-2-oxopyridin-1(2H)-yl]-N-hydroxy-2-methyl-2-(methylsulfonyl)butanamide]: in experiment [1], the PA-7 (MIC) came to 8 µg/mL. In addition, in experiment [2], the EC-1 (MIC) worked out at 4 µg/mL.

For the molecule `CCCCCc1ccc(-c2ccn(CCC(C)(C(=O)NO)S(C)(=O)=O)c(=O)c2)cc1` (centres unmarked) [Example 217, N-hydroxy-2-methyl-2-(methylsulfonyl)-4-[2-oxo-4-(4-pentylphenyl)pyridin-1(2H)-yl]butanamide], in experiment [1], the PA-7 (MIC) is 8 µg/mL. Moreover, the EC-1 (MIC) in experiment [2] is less than 0.06 µg/mL.

In the case of `CC(CCn1ccc(-c2ccncc2)cc1=O)(C(=O)NO)S(C)(=O)=O` (centres unmarked) [Example 218, N-hydroxy-2-methyl-2-(methylsulfonyl)-4-(2-oxo-4,4′-bipyridin-1(2H)-yl)butanamide], in experiment [1], the PA-7 (MIC) was found to be 64 µg/mL. Further, the EC-1 (MIC) in experiment [2] was more than 64 µg/mL.

Molecule `CC(CCn1ccc(-c2cccnc2)cc1=O)(C(=O)NO)S(C)(=O)=O` (centres unmarked) [Example 219, N-hydroxy-2-methyl-2-(methylsulfonyl)-4-(2′-oxo-3,4′-bipyridin-1′(2′H)-yl)butanamide] came in with a PA-7 (MIC) in experiment [1] of more than 64 µg/mL. The EC-1 (MIC) in experiment [2] is more than 64 µg/mL.

As for `Cc1cc(-c2ccccc2)cc(=O)n1CCC(C)(C(=O)NO)S(C)(=O)=O` (centres unmarked) [Example 220, N-hydroxy-2-methyl-4-(6-methyl-2-oxo-4-phenylpyridin-1(2H)-yl)-2-(methylsulfonyl)butanamide], the PA-7 (MIC) in experiment [1] is more than 64 µg/mL. The same molecule yielded an EC-1 (MIC) in experiment [2] of more than 64 µg/mL.

`CC(CCn1ccc(-c2ccc(OCCCN3CCOCC3)c(Cl)c2)cc1=O)(C(=O)NO)S(C)(=O)=O` (centres unmarked) [Example 221, 4-{4-[3-chloro-4-(3-morpholin-4-ylpropoxy)phenyl]-2-oxopyridin-1(2H)-yl}-N-hydroxy-2-methyl-2-(methylsulfonyl)butanamide] came in with a PA-7 (MIC) in experiment [1] of 8 µg/mL. Further, the EC-1 (MIC) in experiment [2] was 2 µg/mL.

With `Cc1cc(-c2ccn(CCC(C)(C(=O)NO)S(C)(=O)=O)c(=O)c2)ccc1OCCCN1CCOCC1` (centres unmarked) [Example 222, N-hydroxy-2-methyl-4-{4-[3-methyl-4-(3-morpholin-4-ylpropoxy)phenyl]-2-oxopyridin-1(2H)-yl}-2-(methylsulfonyl)butanamide], the PA-7 (MIC) in experiment [1] was 8 µg/mL. For the same molecule, in experiment [2], the EC-1 (MIC) amounted to 2 µg/mL.

Turning to `CC(CCn1ccc(-c2ccc(OCCCN3CCOCC3)c(F)c2)cc1=O)(C(=O)NO)S(C)(=O)=O` (centres unmarked) [Example 223, 4-{4-[3-fluoro-4-(3-morpholin-4-ylpropoxy)phenyl]-2-oxopyridin-1(2H)-yl}-N-hydroxy-2-methyl-2-(methylsulfonyl)butanamide], the PA-7 (MIC) in experiment [1] was 8 µg/mL. In experiment [2], this molecule came in with an EC-1 (MIC) of 4 µg/mL.

`CC(O)Cc1ccc(-c2ccn(CCC(C)(C(=O)NO)S(C)(=O)=O)c(=O)c2)cc1` (centres unmarked) [Example 224, N-hydroxy-4-{4-[4-(2-hydroxypropyl)phenyl]-2-oxopyridin-1(2H)-yl}-2-methyl-2-(methylsulfonyl)butanamide]: the PA-7 (MIC) in experiment [1] is 8 µg/mL. This molecule displayed an EC-1 (MIC) in experiment [2] of 32 µg/mL.

Molecule `CC(CCn1ccc(-c2ccc(OCCCN3CCOCC3)cc2Cl)cc1=O)(C(=O)NO)S(C)(=O)=O` (centres unmarked) [Example 225, 4-{4-[2-chloro-4-(3-morpholin-4-ylpropoxy)phenyl]-2-oxopyridin-1(2H)-yl}-N-hydroxy-2-methyl-2-(methylsulfonyl)butanamide] displayed a PA-7 (MIC) in experiment [1] of 16 µg/mL. Moreover, the EC-1 (MIC) in experiment [2] came to 8 µg/mL.

These data come from patent publication US8846933B2, “N-link hydroxamic acid derivatives useful as antibacterial agents” (Pfizer Inc., priority 2009, dated 2014).
